# Key:
# HeLa cells = assay: in vitro; format: cell-based, human
# Method: (§1) These 10 compounds were tested for their MICs and minimum re-sensitizing concentrations (MRCs) in the presence colistin at 2 μg/mL in E. coli AR-0493. […] To evaluate their toxicity in mammalian cells, the present inventors treated human epithelial adenocarcinoma HeLa cells with each compound at a wide range of concentrations.
# (§2) To evaluate the mammalian toxicity of these analogs, Applicants tested them in cell viability assay using human cervical adenocarcinoma HeLa cells. Their respective half maximal growth inhibition concentration (GI50) was calculated using KaleidaGraph. The selectivity index (SI) for each compound was also calculated as the ratio of their GI50 and MRC. […] Therefore, Applicants selected two bisanilino analogs, 7l and 7m, that bear chlorines at the meta- and para-positions, respectively, of the phenyl groups for further characterization studies. […]. […] Their mammalian toxicities were also evaluated, and SIs calculated. […] Applicants we next explored the scope of analogs 71 and 7m their colistin-potentiating activity in 8 different MDR Gram negative bacteria with diverse genetic backgrounds and resistance mechanisms (Table 7). All strains were obtained from CDC and FDA Antibiotic Resistance Bank. For example, E. coli AR-0493 and K. pneumoniae AR-0497 carry the plasmid that contains the most prevalent mcr-1 gene. E. coli AR-0538, Salmonella Typhimurium AR-0539 and AR-0635 contain the mcr-2, 3, and 4 genes, respectively. These genes encode the phosphoethanolamine transferase, which was originated form the chromosome of A. baumannii, such as AR-0310. […]. A. baumannii AR-0310 appears more sensitive to these two compounds and the MICs of colistin was reduced to 0.25 μg/mL.
# (§3) General Methods. MDR strains E. coli AR-0493, AR-0346, and AR-0538, Salmonella Enteritidis AR-0496, Salmonella Typhimurium AR-0635, K. pneumoniae AR-0497, A. baumannii AR-0300 and AR-0310 were all obtained from the CDC & FDA Antibiotic Resistance Isolate Bank. E. coli K-12 was a gift from the Copley lab (Department of MCD Biology, University of Colorado Boulder). HeLa cells were purchased from the ATCC. All bacterial strains were grown on trypticase soy agar supplemented with 5% sheep blood (BAP). Bacteria were then cultured in Luria-Bertani (LB) medium at 35° C. until they achieve the log phase before screening or antimicrobial testing using CAMHB media. MIC, MRC, and checkerboard analyses and mammalian growth inhibition analyses in Hela cells were performed as described previously. More details are given in Supporting information.
# A. baumannii AR-0310 = assay: Colistin MIC in the absence or presence of RMA compound; format: cell-based; conditions: for Colistin MIC (+ compound): in the presence of 1 μg/mL of compound indicated; for Colistin MIC: colistin alone
# Description: (§4) To investigate the scope of the colistin-potentiation effect of compound 3, the present inventors screened a panel of MDR Gram-negative bacteria obtained from the CDC and FDA Antibiotic Resistance Bank. These include a variety of Enterobacteriaceae spp., such as E. coli AR-0346 and AR-0538, K. pneumoniae AR-0497, Salmonella Enteritidis AR-0496, and Salmonella Typhimurium AR-0635. These strains all express the mcr genes (e.g., mcr-1, mcr-2, and mcr-4) and are resistant to colistin with its MICs of 8-16 μg/mL (Table 2). […] The only exception is Salmonella Typhimurium AR-0635, which expresses mcr-4 gene. […]. […]. Furthermore, the present inventors also tested the activity of colistin in the presence or absence of 1 μg/mL compound 3 in a wild-type E. coli K-12. […] The MICs of compound 3 in all these strains were >64 μg/mL, the highest concentration tested.
# as §2, §3
# [1] = tested on: Salmonella Typhimurium AR-0635; assay: as above; format: cell-based; conditions: for Colistin MIC (+ compound): in the presence of 1 μg/mL of compound indicated, S. Typhimurium AR-0635; for Colistin MIC: colistin alone
# Description: as §4, §2, §3
# E. coli AR-0538 = assay: as above; format: cell-based; conditions: for Colistin MIC (+ compound): in the presence of 1 μg/mL of compound indicated, E. coli AR-0538; for Colistin MIC: colistin alone, E. coli AR-0538, mcr-2
# Description: as §4, §2, §3
# E. coli AR-0493 [2] = assay: as above; format: cell-based; conditions: for Colistin MIC (+ compound): in the presence of 1 μg/mL of compound indicated, E. coli AR-0493; for Colistin MIC: colistin alone, E. coli AR-0493, mcr-1
# Description: as §4, §2, §3
# K. pneumoniae AR-0497 = assay: as above; format: cell-based; conditions: for Colistin MIC (+ compound): in the presence of 1 μg/mL of compound indicated, K. pneumoniae AR-0497; for Colistin MIC: colistin alone, K. pneumoniae AR-0497, mcr-1
# Description: as §4, §2, §3
# [3] = tested on: Salmonella Typhimurium AR-0539; assay: as above; format: cell-based; conditions: for Colistin MIC (+ compound): in the presence of 1 μg/mL of compound indicated, S. Typhimurium AR-0539
# Method: as §2
# P. aeruginosa AR-0239 = assay: as above; format: cell-based; conditions: for fold reduction of colistin MIC: 1 μg/mL of compound; for Colistin MIC (+ compound): in the presence of 1 μg/mL of compound indicated
# Method: as §2
# P. aeruginosa AR-0257 = assay: as above; format: cell-based; conditions: for fold reduction of colistin MIC: 1 μg/mL of compound; for Colistin MIC (+ compound): in the presence of 1 μg/mL of compound indicated
# Method: as §2
# E. coli AR-0493 [4] = assay: MIC, CLSI broth microdilution, substance alone; format: cell-based
# Method: A MDR E. coli strain AR-0493 (a.k.a., ATCC BAA-3170) was obtained from the CDC and FDA Antibiotic Resistance Bank and used for the initial screen. […] Considering the difficulties on the discovery of novel antimicrobial reagents against Gram-negative bacteria, we chose to screen the fragment-based library of 3,200 compounds from TimTec (Tampa, FL). […] The screen used a modified broth microdilution assay.
# as §1, with “concentrations. […]” for “concentrations.”
# as §3
# E. coli AR-0493 [5] = assay: Minimum re-sensitizing concentration (MRC) in the presence of colistin; format: cell-based; conditions: in the presence of 2 μg/mL colistin, E. coli AR-0493
# Method: These 10 compounds were tested for their MICs and minimum re-sensitizing concentrations (MRCs) in the presence colistin at 2 μg/mL in E. coli AR-0493.
# The present inventors further conducted MRC screens of selected compounds from groups 2-5 in AR-0493. Compound were tested against AR-0493 with compound X+2 μg/mL Colistin.
# All compounds were tested for their respective minimum resensitizing concentrations (MRCs) for colistin against E. coli. AR0493, a MDR strain from CDC and FDA Antibiotic Resistance Bank. […] For the symmetrical bisanilino series, 7a-p, electron-donating alkyl and alkoxy groups (entries 7a-g, Table 5) at various positions of the phenyl rings were investigated. […] Three asymmetric bisanilino analogs (7q-s, Table 5) were synthesized based on the SARs of the monoanilino analogs 8a-p (vide infra).
# as §3
# mitochondria = conditions: previously reported; in vitro and in mice; cited from earlier work
# P. aeruginosa AR-0768 = assay: Colistin MIC in the absence or presence of RMA compound; format: cell-based; conditions: colistin alone
# Description: as §4
# [6] = tested on: MDR Gram-negative bacteria; assay: MICs across a panel of MDR Gram-negative bacteria (summary statements); format: cell-based; conditions: colistin alone
# Description: as §4, §2, §3
# E. coli AR-0346 = assay: Colistin MIC in the absence or presence of RMA compound; format: cell-based; conditions: colistin alone; E. coli AR-0346, mcr-1
# Description: as §4, §3
# [7] = tested on: Salmonella Enteritidis AR-0496; assay: as above; format: cell-based; conditions: colistin alone; Salmonella Enteritidis AR-0496, mcr-1
# Description: as §4, §3
# E. coli K-12 = assay: as above; format: cell-based; conditions: colistin alone; wild-type E. coli K-12
# Description: as §4, §3
# A. baumannii AR-0300 = assay: as above; format: cell-based; conditions: colistin alone
# Description: as §4, §3
# E. coli AR-0349 = assay: MICs of a panel of 9 antibiotics with and without compound 3; format: cell-based
compound,measurement,setting,value
Clc1cccc(Nc2nc3nonc3nc2Nc2cccc(Cl)c2)c1 [Compound 7l],GI50,HeLa cells,1.1 µg/mL
same,Colistin MIC (+ compound),A. baumannii AR-0310,0.25 µg/mL
same,Colistin MIC (+ compound),[1],1 µg/mL
same,Colistin MIC (+ compound),E. coli AR-0538,1 µg/mL
same,Colistin MIC (+ compound),E. coli AR-0493 [2],1 µg/mL
same,Colistin MIC (+ compound),K. pneumoniae AR-0497,1 µg/mL
same,Colistin MIC (+ compound),[3],1 µg/mL
same,fold reduction of colistin MIC,P. aeruginosa AR-0239,4 folds
same,Colistin MIC (+ compound),P. aeruginosa AR-0239,1 µg/mL
same,fold reduction of colistin MIC,P. aeruginosa AR-0257,4 folds
same,Colistin MIC (+ compound),P. aeruginosa AR-0257,2 µg/mL
same,MIC,E. coli AR-0493 [4],>64 µg/mL
same,MRC (minimum re-sensitizing concentration),E. coli AR-0493 [5],0.25 µg/mL
Clc1ccc(Nc2nc3nonc3nc2Nc2ccc(Cl)cc2)cc1 [Compound 7m],GI50,HeLa cells,2.8 µg/mL
same,Colistin MIC (+ compound),A. baumannii AR-0310,0.25 µg/mL
same,Colistin MIC (+ compound),[1],1 µg/mL
same,Colistin MIC (+ compound),E. coli AR-0538,2 µg/mL
same,Colistin MIC (+ compound),E. coli AR-0493 [2],1 µg/mL
same,Colistin MIC (+ compound),K. pneumoniae AR-0497,1 µg/mL
same,Colistin MIC (+ compound),[3],2 µg/mL
same,fold reduction of colistin MIC,P. aeruginosa AR-0239,4 folds
same,Colistin MIC (+ compound),P. aeruginosa AR-0239,1 µg/mL
same,fold reduction of colistin MIC,P. aeruginosa AR-0257,4 folds
same,Colistin MIC (+ compound),P. aeruginosa AR-0257,2 µg/mL
same,MIC,E. coli AR-0493 [4],>64 µg/mL
same,MRC (minimum re-sensitizing concentration),E. coli AR-0493 [5],0.5 µg/mL
FC(F)(F)Oc1ccc(Nc2nc3nonc3nc2Nc2ccc(OC(F)(F)F)cc2)cc1 [Compound 7p],GI50,HeLa cells,5.7 µg/mL
same,MIC,E. coli AR-0493 [4],>64 µg/mL
same,MRC (minimum re-sensitizing concentration),E. coli AR-0493 [5]; listed as 57p,0.25 µg/mL
same,mitochondrial uncoupler activity,mitochondria,poor uncoupler
Oc1nc2nonc2nc1Nc1ccc(OC(F)(F)F)cc1 [Compound 8p],mitochondrial uncoupler activity,mitochondria,one of the most potent uncouplers
Colistin [reference compound],Colistin MIC,P. aeruginosa AR-0768,16 µg/mL
same,Colistin MIC,A. baumannii AR-0310; Table 2,16 µg/mL
same,Colistin MIC,A. baumannii AR-0310; Table 7,32 µg/mL
same,Colistin MIC,"[1]; S. Typhimurium AR-0635, mcr-4, Table 7",32 µg/mL
same,Colistin MIC,"[1]; Salmonella Typhimurium AR-0635, mcr-4, Table 2",16 µg/mL
same,Colistin MIC,E. coli AR-0538; Table 2,8 µg/mL
same,Colistin MIC,E. coli AR-0538; Table 7,8 µg/mL
same,Colistin MIC,E. coli AR-0493 [2]; Table 2,16 µg/mL
same,Colistin MIC,E. coli AR-0493 [2]; Table 7,8 µg/mL
same,Colistin MIC,K. pneumoniae AR-0497; Table 2,8 µg/mL
same,Colistin MIC,K. pneumoniae AR-0497; Table 7,8 µg/mL
same,Colistin MIC,[6]; 8 MDR Gram negative strains of Table 7,4 to 32 µg/mL
same,Colistin MIC,[6]; mcr-expressing Enterobacteriaceae strains of Table 2,8 to 16 µg/mL
same,Colistin MIC,"[3]; colistin alone, S. Typhimurium AR-0539, mcr-3",8 µg/mL
same,Colistin MIC,P. aeruginosa AR-0239; colistin alone,4 µg/mL
same,Colistin MIC,P. aeruginosa AR-0257; colistin alone,8 µg/mL
same,Colistin MIC,E. coli AR-0346,8 µg/mL
same,Colistin MIC,[7],16 µg/mL
same,Colistin MIC,E. coli K-12,0.25 µg/mL
same,Colistin MIC,A. baumannii AR-0300,8 µg/mL
same,MIC,E. coli AR-0493 [4],16 µg/mL
same,INT (S-R interpretation),"E. coli AR-0349; CLSI 2021, M100, Ed 31",R
same,MIC,"E. coli AR-0349; antibiotic alone, multidrug-resistant E. coli",16 µg/mL
same,fold of potentiation,E. coli AR-0349; by 1 μg/mL of compound 3,16 fold
same,MIC (+3),E. coli AR-0349; in the presence of 1 μg/mL of compound 3,1 µg/mL

# Reference: patent publication US20250170127A1, “RE-SENSITIZING MULTIDRUG-RESISTANT (MDR) GRAM-NEGATIVE BACTERIA TO COLISTIN USING IONOPHORES” (The Regents of the University of Colorado, a body corporate, priority 2022, published 2025)
